# Test system: baboon smooth muscle cells
# Assay: Wash-out study of PDGF-BB mitogenic activity on baboon smooth muscle cells
# Type: cell-based
# Details: mean +/- SD
# Description: NNC92-0270 was analyzed for prolonged inhibitory effect on PDGF-BB mitogenic activity on baboon smooth muscle cells in a wash-out experiment. Baboon SMCs were plated at 20,000 cells per well in a 24-well culture dish and grown for 2 days. The culture media was removed and replaced with Mito Media (Table 5) to allow the cells to become quiescent. The experiment was set up such that cells were treated with NNC92-0270 or vehicle control (0.5% DMSO) for either 24 hours prior to the addition of PDGF-BB, or sequentially with the addition of PDGF-BB. Those cells initially treated with NNC92-0270 or control vehicle for 24 hours, were washed with Mito Media to remove the test compound and then incubated with PDGF-BB (1 ng/ml) for an additional 24 hours. A second set of cells was treated with NNC92-0270 or vehicle control simultaneously with PDGF-BB for 24 hours. The cells were pulse labeled for 4 hours with [^3 H] thymidine (1 μCi/ml final) harvested with trypsin and counted in a Wallac Betaplate counter to determine CPM for [^3 H] thymidine incorporation.
# Acetic acid (10 mM) was used as the PDGF-BB vehicle control and 0.5% DMSO was used as the test compound control.
smiles,measurement,setting,value
O=C(NN1CCCCC1)NS(=O)(=O)c1ccc(CCNC(=O)c2[nH]c3ccccc3c2OCc2ccccc2)cc1 [NNC92-0270],[3H] Thymidine Incorporation (cpm),"T = -24 hrs 0.5% DMSO, T = 0 hrs compound simultaneously with PDGF-BB (1 ng/ml)",678 +/- 68 cpm
same,[3H] Thymidine Incorporation (cpm),"T = -24 hrs compound, washed out, T = 0 hrs PDGF-BB (1 ng/ml)",5735 +/- 474 cpm
same,[3H] Thymidine Incorporation (cpm),"T = -24 hrs compound, washed out, T = 0 hrs acetic acid (no PDGF-BB)",237 +/- 36 cpm

# — patent US5731326A, “PDGF antagonists II” (ZymoGenetics, Inc., priority 1996, dated 1998)
